According to PMC3454376, “Salidroside Improves Behavioral and Histological Outcomes and Reduces Apoptosis via PI3K/Akt Signaling after Experimental Traumatic Brain Injury” (PLoS ONE, 2012):

System: mice subjected to controlled cortical impact injury
Experiment: Beam walk test after CCI
Format: in vivo
Description: All animal procedures were approved by the Animal Research Committee at Cheng Hsin General Hospital (Animal permit number […] 101-08), and all procedures complied with the Guide for the Care and Use of Laboratory Animals published by the US National Institutes of Health (NIH Publication No. 85-23, revised 1996). Animals were housed under a 12-h light/dark cycle and at constant temperature (21-25°C) and humidity (45-50%). They were allowed free access to pellet chow and water. TBI in mice was induced by a CCI injury model as previously described. Briefly, 8-week-old male C57BL/6 mice (weighing 22-25 g) were anesthetized through the use of intraperitoneal injection of sodium pentobarbital (65 mg/kg; Rhone Merieux, Harlow, UK) and placed in a stereotaxic frame. A 5 mm craniotomy was performed over the right parietal cortex, centered on the coronal suture and 0.1 mm lateral to the sagittal suture, and injury to dura was avoided. […] Body temperature was monitored throughout the surgery by a rectal probe; temperature was maintained at 37.0±0.5°C using a heated pad. […] To determine the optimal dose of salidroside, a pilot study was performed using 2 different doses (20 and 50 mg/kg) administered 10 min after injury, and neurological deficits and tissue damage were evaluated as the main outcomes. […]

In the case of `OC[C@H]1O[C@@H](OCCc2ccc(O)cc2)[C@H](O)[C@@H](O)[C@@H]1O` [SALD, salidroside], the “beam walk latency versus vehicle group” value (20 mg/kg ip 10 min after CCI, days 4 and 21, P<0.05 and 0.01) is reported as “significant difference” and the “beam walk latency, treatment effect versus vehicle” value (50 mg/kg ip 10 min after CCI, P<0.05) is reported as “significant only at day 4”.
